Assay results taken from patent US20040133008A1, “Amide compounds” (FUJISAWA PHARMACEUTICAL CO., LTD., priority 2002, published 2004).

Assays:
Apo B secretion = experiment: Measurement of Inhibition of Apo B Secretion; format: cell-based; details: Homo sapiens; HepG2 cells, 10^−8 M test compound, 15-hour incubation, Apo B in media by ELISA, 0.1% DMSO treated cells as controls
Procedure: Test 1: Measurement of Inhibition of Apo B Secretion
HepG2 cells were seeded in Eagles medium containing 10% fetal calf serum (FCS) at a density of 30000 cells/well in 96-well plates and allowed to grow for 3 days before treatment. At this time, the medium was replaced with fresh medium containing 0.1% dimethyl sulfoxide (DMSO) and the indicated concentrations of a test compound. After 15-hour incubation, the amount of Apo B and Apo AI accumulated in the media was determined by ELISA.
The assay was carried out at ambient temperature. A flat bottomed micro ELISA plate (manufactured by Nunc) was coated with an anti Apo B monoclonal antibody solution ([…] in 0.05% carbonate buffer, pH 9.6) by adding the antibody solution at a volume of 100 μl per well. After 1-hour incubation on a plate mixer, the unbound materials were removed by washing the well 3 times with a washing buffer (phosphate buffered saline, pH 7.2 containing 0.1% bovine serum albumin and 0.05% Tween-20). Then 20 μl of […] and 100 μl of a solution of peroxidase coupled anti Apo B antibody were added. After 1-hour incubation on a plate mixer, washing was performed 3 times to remove the unbound materials. A freshly prepared substrate solution (2.5 mg/ml ortho-phenylene diamine and 0.018% H2O2 in 0.11 M Na2HPO4-0.044 M sodium citrate buffer, pH 5.4) at a volume of 200 μl was then added to each well. After 20-minute incubation, the enzyme reaction was terminated by adding 50 μl of 0.5 M sulfuric acid. Absorbance of each well was determined at 490 nm using a microplate reader. Apo B concentration was calculated from a standard curve generated from purified Apo B standard that was run in parallel in the same plate. Inhibition of Apo B secretion by the test compound was calculated taking 0.1% DMSO treated cells as controls.
Measurement of Apo AI was performed similar to that of Apo B, except for diluting the sample 11-fold with a dilution buffer (phosphate buffered saline, pH 7.2 containing 0.5% bovine serum albumin and 0.05% Tween-20).
Apo B secretion inhibitors are identified as compounds that decrease Apo B secretion without affecting the secretion of Apo AI.

ddY-mice = experiment: Lipid Lowering Effect on ddY-Mice; format: in vivo; details: male ddY-mice, dose 0.32 mg/kg orally in olive oil, plasma TG 2 hours after administration; (TG increase in drug treated group/TG increase in control group)×100
Procedure: Test 2: Lipid Lowering Effect on ddY-Mice
Male ddY-mice were housed in temperature- and humidity-controlled rooms and fed with laboratory chow. The animals were randomized according to their body weight and food was deprived about 16 hours before experiment. Baseline blood sample was collected from the retro orbital venous plexus then the animals were orally dosed with drugs in olive oil (10 ml/kg). For control group, 10 ml/kg of olive oil was loaded orally. Blood samples were drawn at 2 hours after drug administration for the measurement of triglyceride (TG) elevation. Plasma TG was determined by conventional enzyme method (The triglyceride E-test Wako).
Lipid lowering effects were shown in percent of the TG increase in drug treated group, relative to the TG increase in control group.
Lipid lowering effect(%)=(TG increase in drug treated group/TG increase in control group)×100

Row | Structure (SMILES) | inhibition at 0.01 µM (Apo B secretion) [%] | TG increase relative to control (%) (ddY-mice)
1 | CC1CCN(c2ncccc2C(=O)Nc2ccc(NCCc3ccccn3)cc2)CC1 [Example 54, 2-(4-Methyl-1-piperidinyl)-N-(4-{[2-(2-pyridinyl)ethyl]amino}phenyl)nicotinamide] | 86.3 | 28
2 | CCc1ccc(C(=O)Nc2ccc(NCCn3cccn3)cc2)c(N(C)C)c1 [Example 473, 2-(Dimethylamino)-4-ethyl-N-(4-{[2-(1H-pyrazol-1-yl)ethyl]amino}phenyl)benzamide] | 75.7 | 
3 | Cc1ccc(C(=O)Nc2ccc(NC(=O)C(C)c3ccccn3)cc2)c(N2CCC(C)CC2)n1 (centres unmarked) [Example 415, 6-Methyl-2-(4-methyl-1-piperidinyl)-N-(4-{[2-(2-pyridinyl)propanoyl]amino}phenyl)nicotinamide] | 76.2 | 
4 | CN(C)c1cc(Cl)ccc1C(=O)Nc1ccc(NCCc2cccc(N)n2)cc1 [Example 435, N-(4-{[2-(6-Amino-2-pyridinyl)ethyl]amino}phenyl)-4-chloro-2-(dimethylamino)benzamide] | 85.9 | 52
5 | Cc1ccc(C(=O)Nc2ccc(NCCn3cccn3)cc2)c(N(C)C)c1 [Example 183, 2-(dimethylamino)-4-methyl-N-(4-{[2-(1H-pyrazol-1-yl)ethyl]amino}phenyl)benzamide] | 81.2 | 27
6 | Cc1ccc(C(=O)Nc2ccc(NCCc3ccccn3)cc2)c(N(C)C)c1 [Example 42, 2-(Dimethylamino)-4-methyl-N-(4-{[2-(2-pyridinyl)ethyl]amino}phenyl)benzamide] | 85.8 | 33
7 | Cc1ccc(C(=O)Nc2ccc(NC(=O)Cn3cccn3)cc2)c(N2CCC(C)CC2)n1 [Example 193, 6-methyl-2-(4-methyl-1-piperidinyl)-N-{4-[(1H-pyrazol-1-ylacetyl)amino]phenyl}nicotinamide] | 71.5 | 
